From publication PMC11267533, “Ligandability at the Membrane Interface of GPx4 Revealed through a Reverse Micelle Fragment Screening Platform” (JACS Au, 2024)

These compounds were tested against T1, GPx4 embedded in a mmRM (membrane-bound GPx4) (Homo sapiens, UniProt P36969, U73G) (assay: NMR (15N-HSQC) titration of fragments against GPx4 embedded in DLPC/DPC mmRM, apparent Kd). Settings: Table 1; GPx4 in DLPC/DPC mmRM, NMR titration up to 400 μM or 1 mM; ± standard error of global Kd fit; read-out: Kd (apparent).
T1 construct: Truncated U46G-GPx4 with a TEV cleavable poly-histidine tag was inserted into vector; poly-histidine tag with TEV cleavage site; host or cells: BL21 (DE3) E. coli
T1 sequence (P36969 1-170 isoform P36969-2 U46G): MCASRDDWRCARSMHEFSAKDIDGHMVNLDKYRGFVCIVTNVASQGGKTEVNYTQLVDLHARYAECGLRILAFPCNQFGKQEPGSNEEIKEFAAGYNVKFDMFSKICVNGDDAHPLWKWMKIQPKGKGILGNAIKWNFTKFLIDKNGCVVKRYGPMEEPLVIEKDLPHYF
Assay type: binding
Excerpt: To assess whether the fragment hits are bound specifically to GPx4 and to calculate affinity, we performed NMR-based titrations. Chemical shift changes that approach saturation in a structurally localized manner target indicate specific binding.[24] This allows true positive hits to be separated from false positives and weak or nonspecific binders. Additionally, NMR-based titrations allow for the extraction of a binding affinity (Kd). To calculate apparent Kd values, CSP cutoffs were used to isolate the resonances with most shifting using 1 standard deviation above the average CSP. All 14 fragments identified from the deconvolutions were titrated up to 400 μM or 1 mM if needed. Of the 14, 9 had apparent Kds less than 1 mM and were identified as hits. Observed here is a 0.47% hit rate with best affinities in the μM range for the membrane-bound form of GPx4 and is consistent with ligandable and potentially druggable targets.[14],[57] […] The remaining five fragments, 10–14, were ruled out as weaker (>∼1 mM) or nonspecific binders. Weak or nonspecific binding could indicate that fragments partitioning to the mmRM surface and perturb the protein spectrum through a simple change in the chemical environment at the interface, among other possible nonspecific effects. […] We note that the weaker and nonspecific fragments were only eliminated due to interaction modes that are too weak or unproductive for advancement toward inhibitors; yet, binding was nevertheless detected. […] We note here that apparent Kd values reported in this study account for a total amount of fragment and protein within the mmRM sample and are not corrected for any potential concentrating effect due to localization of fragment to the mmRM surface or water phase.
NMR samples were prepared with ^15N-isotopically labeled protein with 10% v/v of d-pentane as the lock solvent (Sigma-Aldrich, St. Louis, MO). All NMR spectra were collected at 25 °C on a 700 MHz Bruker Avance III instrument. All NMR spectra were processed using NMRPipe[66] and analyzed using NMRFAM-Sparky.[67] Chemical shifts for GPx4 (BMRB 50955) were assigned from those previously published.[52] Chemical shift perturbations from ^15N-HSQC spectra were calculated using the following formula [drawing 1] where Δ^1H and Δ^15N are the changes in ^1H and ^15N chemical shifts, respectively.
The 14 fragments isolated from deconvolutions were purchased from Life Chemicals (fragments 1, 4, 6, and 11, and 12–14), Combi-Blocks (2, 3, 5, 9, and 10), or ChemBridge Hit2Lead (7 and 8). All fragment 1 and 5 analogues were also purchased from ChemBridge Hit2Lead. Fragments and analogues purchased from Life Chemicals and Hit2Lead are 90+% pure, while the fragments purchased from Combi-Blocks ranged from 95 to 97% pure. The day prior to the titration, a double-volume sample of encapsulated GPx4 was made before being split up into two separate vials. Half of the sample was added to the vial containing predried fragment corresponding to 400 μM or 1 mM. […] If they were, then the two samples were mixed to produce varying concentrations and to measure a titration curve. The top-shifting resonances were determined by calculating the average CSP at 400 μM or 1 mM and 1 and 2 standard deviations (σ) above that average. The CSP for the resonance at each fragment concentration was extracted and fit to a curve using an affinity equation that accounts for ligand depletion [drawing 2]
Any resonance producing a curve with an R^2 below 0.85 was removed, and the remaining resonances were then used to fit a global apparent Kd curve for the fragment hit. Standard error for Kd from the global fit of all of the selected residues is reported.

Q: N#Cc1ccc(CC(=O)O)cc1 [Fragment 2] was tested. Which Kd did it give?
A: 110 ± 65 µM

Q: With NCCS(=O)(=O)c1ccccc1 [Fragment 3] as the compound, how does the Kd read?
A: 140 ± 50 µM

Q: For COCC(=O)N1CCOc2ccccc2C1 [Fragment 4], which Kd is on record?
A: 140 ± 85 µM

Q: NCc1nc(-c2ncccn2)no1 [Fragment 7] was tested. Which Kd did it give?
A: 310 ± 100 µM

Q: Which Kd does the source give for CC(=O)c1c(C)nn(CC(=O)O)c1C [Fragment 8] here?
A: 370 ± 165 µM

Q: Which Kd does the source give for CCOC(=O)c1ccc(Cl)nn1 [Fragment 9] here?
A: 840 ± 300 µM

Same assay, conditions: Table 2, analogues of fragment 5; GPx4 in mmRM; ± standard error of global Kd fit; read-out: Apparent Kd

Q: O=c1oc2c(-c3ccccc3)cc(O)cc2s1 [Analog 5.1] was tested. Which Kd did it give?
A: > 400 µM

Q: How did the Kd turn out when Cc1cccc(-c2cc(O)cc3sc(=O)oc23)c1 [Analog 5.2] was run?
A: > 400 µM

Q: With O=c1oc2c(-c3ccccc3Cl)cc(O)cc2s1 [Analog 5.3] as the compound, how does the Kd read?
A: 85 ± 50 µM

Q: How did the Kd turn out when O=c1oc2c(-c3ccc(Cl)cc3)cc(O)cc2s1 [Analog 5.4] was run?
A: 40 ± 20 µM

Q: How did the Kd turn out when O=c1oc2c(-c3cccc(Cl)c3)cc(O)cc2s1 [Analog 5.6] was run?
A: 25 ± 10 µM

Q: Which Kd does the source give for Cc1ccc(-c2cc(O)cc3sc(=O)oc23)cc1Cl [Analog 5.7] here?
A: 15 ± 10 µM
